Measurements from patent publication US7608611B2, “Hsp90 inhibitors, methods of making and uses therefor” (The Regents of the University of Colorado, priority 2005, dated 2009).
Like-named read-outs stand apart in the source and are kept apart here.

How the values were obtained:
MDA468/NQ16 cells [1] = settings: MTT
Description: (§2) Cells were seeded at 2×10^3 cells per well (96 well plate) in complete medium overnight.

[2] = clinical trials, background statement; cited from earlier work
NQO1 [3] = biological target: T1, NQO1 (Homo sapiens, UniProt P15559); assay: Reduction of 17-AAG by rhNQO1 and NADH, HPLC analysis; type: in vitro ADME
T1 sequence (P15559 whole entry): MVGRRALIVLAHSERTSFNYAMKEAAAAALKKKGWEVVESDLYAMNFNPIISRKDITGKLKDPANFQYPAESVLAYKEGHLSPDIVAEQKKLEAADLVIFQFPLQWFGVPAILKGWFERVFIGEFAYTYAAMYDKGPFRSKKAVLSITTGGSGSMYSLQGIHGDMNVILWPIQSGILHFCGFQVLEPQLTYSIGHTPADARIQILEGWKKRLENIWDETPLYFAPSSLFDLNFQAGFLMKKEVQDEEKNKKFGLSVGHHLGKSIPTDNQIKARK
Description: HPLC conditions: Buffer A, 50 mM ammonium acetate, pH 4 containing 10 μM D(−) penicillamine; buffer B, acetonitrile (100%). Both buffers were continuously bubbled with N2. Gradient, 20% B to 85% B over 20 min, then 85% for 4 min (flow rate of 1 ml/min). The sample injection volume was 50 μl. Liquid Chromatography-Mass Spectrometry was performed using positive ion electrospray ionization (ESI) and the mass spectra were obtained with a PE Sciex API-3000 triple quadrupole mass spectrometer (Foster City, Calif.) with a turbo ionspray source interfaced to a PE Sciex 200 HPLC system. Samples were chromatographed on a Luna C18 reverse-phase column (5 μm, 50×2 mm (Phenomenex) using a gradient elution consisting of a 2 min initial hold at 20% B followed by an increase to 80% B over 20 min at a flow rate of 0.2 ml/min and a sample injection volume of 20 μl. Buffer A, 10 mM ammonium acetate containing 0.1% (v/v) acetic acid, pH 4.4: buffer B, 10 mM ammonium acetate in acetonitrile containing 0.1% (v/v) acetic acid. The mass spectrometer settings were: turbo ionspray temperature of 250° C., spray needle voltage at 4500 V, declustering potential (DP) at 35 V and focus plate (FP) at 125 V. Mass spectra were continuously recorded from 150 to 1000 amu every 3 s during the chromatographic analysis.
Inhibition of rhNQO1 by ES936 was >98%. […]

MDA468 cell sonicates = assay: Reduction of 17-AAG by MDA468 cell sonicates, HPLC; type: in vitro ADME, human
[4] = system: MDA468/NQ16 cell sonicates; settings: NADH or NADPH
Description: The human breast cancer cell line MDA468 and the NQO1 stably transfected cell line MDA468/NQ16 (Clin. Cancer Res. 2004; 10:3147-55) were grown in RPMI-1640 containing 10% (v/v) fetal bovine serum and 1% (v/v) penicillin, streptomycin and glutamine. […] Protein concentrations were determined by the method of Lowry. […] The parental MDA468 cell lines is NQO1 null (<10 nmoles DCPIP/min/mg) due to homozygous expression of the NQO1*2 polymorphism. The stable transfection of the MDA468 cell line with human NQO1 generated the MDA468/NQ16 cell line, which has high NQO1 activity (>1,800 nmoles DCPIP/min/mg).

MDA468 cells [5] = settings: read-out: IC50 growth inhibition; parental MDA468 cells, 4 hr exposure then 72 hr drug-free, MTT
Description: as §2

yeast Hsp90 = yeast Hsp90 (Saccharomyces cerevisiae, UniProt P02829); type: biochemical; settings: 17-AAG, 3 hr; for inhibition of yeast Hsp90 ATPase activity in the presence of NQO1 (17-AAGH2 formed): NADH and rhNQO1
Sequence of yeast Hsp90 (P02829 whole entry): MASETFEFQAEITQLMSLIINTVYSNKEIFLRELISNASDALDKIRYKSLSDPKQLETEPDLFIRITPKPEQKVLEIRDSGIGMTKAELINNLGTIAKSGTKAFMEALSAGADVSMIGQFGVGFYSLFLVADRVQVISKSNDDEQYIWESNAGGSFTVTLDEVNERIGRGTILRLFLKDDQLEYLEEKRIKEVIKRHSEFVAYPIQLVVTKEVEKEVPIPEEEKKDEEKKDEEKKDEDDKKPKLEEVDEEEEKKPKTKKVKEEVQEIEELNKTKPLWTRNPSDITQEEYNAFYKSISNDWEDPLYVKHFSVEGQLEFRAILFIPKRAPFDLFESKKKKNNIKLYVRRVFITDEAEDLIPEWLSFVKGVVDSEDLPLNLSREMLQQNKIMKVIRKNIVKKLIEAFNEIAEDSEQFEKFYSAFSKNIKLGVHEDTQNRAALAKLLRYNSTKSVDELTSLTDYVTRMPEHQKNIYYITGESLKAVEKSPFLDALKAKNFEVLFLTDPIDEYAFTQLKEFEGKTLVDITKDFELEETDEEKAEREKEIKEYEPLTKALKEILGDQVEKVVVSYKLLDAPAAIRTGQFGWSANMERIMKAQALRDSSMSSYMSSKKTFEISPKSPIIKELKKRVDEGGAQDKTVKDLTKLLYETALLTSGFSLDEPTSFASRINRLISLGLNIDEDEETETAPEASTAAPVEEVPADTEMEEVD
Description: Reactions with yeast Hsp90 (top panel) were analyzed after 3 hr, while reactions with human Hsp90 (bottom panel) were analyzed after 12 hr. Phosphate concentrations were measured using the malachite green assay.
Reactions (25 μl) were started by the addition of 1 mM ATP and allowed to proceed at 37° C. for the indicated times. Reactions were then diluted with 225 μl of 100 mM Tris-HCl, pH 7.4, containing 20 mM KCl and 6 mM MgCl2 mixed thoroughly, and 80 μl was transferred to each well (96 well plate) followed by 20 μl of malachite green reagent. After 10 min 83 mM trisodium citrate was added to stabilize the color and plates were read at 650 nm.

MDA468 cells [6] = assay: Metabolism of 17-AAG in intact MDA468 cells, HPLC; type: cell-based, human; settings: 5 μM 17-AAG, 4 hr
MDA468/NQ16 cells [7] = system: MDA468/NQ16 cells
Hsp90 = assay: Immunoblot of Hsp90 inhibition markers (Hsp70, Raf-1, pMEK, pERK) in MDA468/NQ16 versus MDA468 cells; type: cell-based, human; settings: MDA468/NQ16 compared to MDA468 cells
Description: Results were confirmed in duplicate experiments. […] Results were confirmed in duplicate experiments.
To measure Hsp90 inhibition in these cells we analyzed Hsp70 induction and Raf-1 degradation as markers of Hsp90 inhibition (FIG. 5). […] Following drug treatment cells were washed in PBS then lysed by the addition of RIPA buffer (50 mM Tris-HCl, pH 7.4, 0.5% (v/v) NP40) containing 1 mini-protease tablet (protease inhibitor cocktail, Roche Indianapolis Ind.) and phosphatase inhibitors (30 mM NaF, 40 mM β-glycerol phosphate, 20 mM sodium pyrophosphate, 1 mM orthovanadate, 1 mM EGTA). Lysates were probe sonicated (2s) on ice then centrifuged to remove cellular debris. Protein concentrations were determined on supernatant. […] Membranes were blocked in 10 mM Tris-HCl, pH 8.0, 150 mM NaCl, 0.2% Tween-20 and 5% non-fat milk for a minimum of 1 hr at room temperature. Anti-Hsp70, anti-Raf-1, anti-MEK and anti-ERK antibodies were added for 1 hr at room temperature. Anti-phospho MEK and ERK antibodies were added overnight at 4° C. All primary antibodies were diluted 1:1,000 except actin (1:5,000). Horseradish peroxidase-labeled secondary antibodies (Jackson ImmunoResearch Labs, West Grove Pa.) were diluted 1:5000 and added for 30 min. Proteins were visualized using enhanced chemilumenscence detection.

[8] = Stability (autoxidation) of 17-AAGH2 in solution by HPLC; type: physicochemical
Text: Results are mean, standard deviation, n=3.
During analysis HPLC buffers were continuously gassed with N2 and a copper chelator was included. […] In these studies the autoxidation of 17-AAGH2 was followed over time in an aerobic reaction.

NQO1 [9] = biological target: T1, NQO1; assay: Inhibition of NQO1 activity by ES936 in MDA468/NQ16 cells; type: cell-based; design: expressed in transfected cells; host or cells: MDA468/NQ16 (human breast cancer MDA468 stably transfected with human NQO1)
Text: (§1) Inhibition of rhNQO1 by ES936 was >98%.

NQO1 [10] = biological target: T1, NQO1; assay: Inhibition of rhNQO1 by ES936; type: biochemical
Text: as §1

[11] = MDA468/NQ16 cells, 5 μM 17-AAG, 4 hr

For `C=CCNC1=C2C[C@@H](C)C[C@H](OC)[C@H](O)[C@@H](C)/C=C(\C)[C@H](OC(N)=O)[C@@H](OC)/C=C\C=C(/C)C(=O)NC(=CC1=O)C2=O` [17-AAG, 17-demethoxy-17-(2-propenylamino)-geldanamycin], the IC50 (MDA468/NQ16 cells [1]; read-out: IC50 growth inhibition after pretreatment with ES936, pretreatment with 100 nM ES936 for 30 min, 4 hr exposure then 72 hr) is given as 7.67 ± 1.36 µM, the IC50 (MDA468/NQ16 cells [1]; read-out: IC50 growth inhibition, MDA468/NQ16 cells, 4 hr exposure then 72 hr drug-free) is given as 0.86 ± 0.16 µM and the “hepatotoxicity / liver toxicity” value [2] is given as “do not induce liver toxicity”. For the same molecule, the “17-AAG detected in the form of the hydroquinone after reduction by NQO1” value (NQO1 [3]) was 90%, the “generation of 17-AAGH2 by cell sonicates” value (MDA468 cell sonicates) was “No 17-AAGH2 could be detected” and the “generation of 17-AAGH2 by cell sonicates” value [4] was “readily generated 17-AAGH2”. The IC50 (MDA468 cells [5]) was 10.1 ± 1.07 µM, the “inhibition of yeast Hsp90 ATPase activity in the presence of NQO1 (17-AAGH2 formed)” value (yeast Hsp90) was “substantial decrease in ATPase activity” and the “inhibition of yeast Hsp90 ATPase activity in the absence of NQO1” value (yeast Hsp90; NADH) was “No inhibition”. For the same molecule, the “Cell viability (trypan blue exclusion assay)” value (MDA468 cells [6]) was > 90%, the “formation of 17-AAGH2 in intact cells” value (MDA468 cells [6]) was “No 17-AAGH2 could be detected” and the “Cell viability (trypan blue exclusion assay)” value (MDA468/NQ16 cells [7]; [11]) was > 90%. The “formation of 17-AAGH2 in intact cells” value (MDA468/NQ16 cells [7]; [11]) was 17-AAGH2 could be generated, the “accumulation of total drug (quinone plus hydroquinone) in cells” value (MDA468/NQ16 cells [7]; MDA468/NQ16 compared to ES936-treated or parental MDA468 cells) was “accumulated more total drug” and the Hsp70 induction (Hsp90; 17-AAG 0.5-1 μM, 8 hr) was “greater Hsp70 induction”. The Raf-1 degradation (Hsp90; 17-AAG 0.5-1 μM, 8 hr) was “increased Raf-1 degradation” and the “MEK and ERK phosphorylation” value (Hsp90; serum starved 24 hr, 17-AAG 8 hr) was “decreased levels of both MEK and ERK phosphorylation”.

In the case of `C=CCNc1c(O)cc2c(O)c1CC(C)CC(OC)C(O)C(C)C=C(C)C(OC(N)=O)C(OC)C=CC=C(C)C(=O)N2` (stereo not shown) [17-AAGH2, 17-Demethoxy-18,21-dihydroxy-17-(2-propenylamino)-geldanamycin], the “autoxidation of the hydroquinone back to the quinone over time” value ([8]; aerobic, 50 mM potassium phosphate buffer pH 7.4, 27° C.) is reported as “slow rate of autoxidation back to 17-AAG over a period of hours”, the “effect of copper on 17-AAGH2 oxidation” value ([8]; inclusion of copper (CuSO4)) is reported as “could facilitate 17-AAGH2 oxidation” and the “inhibition of yeast Hsp90 ATPase activity in the presence of NQO1 (17-AAGH2 formed)” value (yeast Hsp90) is reported as “the active Hsp90 inhibitor”.

In the case of `CO[C@H]1/C=C\C=C(/C)C(=O)NC2=CC(=O)C(NCCN(C)C)=C(C[C@@H](C)C[C@H](OC)[C@H](O)[C@@H](C)/C=C(\C)[C@@H]1OC(N)=O)C2=O` [17-DMAG, 17-demethoxy-17-[[2-(dimethylamino)ethyl]amino]-geldanamycin], the “hepatotoxicity / liver toxicity” value [2] is given as “do not induce liver toxicity”.

With `COC1=CC(=O)c2c(c(COc3ccc([N+](=O)[O-])cc3)c(C)n2C)C1=O` [ES936, 5-methoxy-1,2-dimethyl-3-[(4-nitrophenoxy)methyl]indole-4,7-dione] the inhibition at 0.1 µM (NQO1 [9]; single dose 100 nM ES936, after 4 hr, MDA468/NQ16 cells) was > 96%, the “toxicity of ES936 to cells” value (NQO1 [9]; single dose of 100 nM) was “nontoxic” and the “Inhibition of rhNQO1” value (NQO1 [10]) was > 98%.

For `COC1=C2C[C@@H](C)C[C@H](OC)[C@H](O)[C@@H](C)/C=C(\C)[C@H](OC(N)=O)[C@@H](OC)/C=C\C=C(/C)C(=O)NC(=CC1=O)C2=O` [GDM, geldanamycin], the “hepatotoxicity / liver toxicity” value [2] is listed as “unacceptable hepatotoxicity”.
